Assay results taken from ChEMBL document CHEMBL1201862, “PubChem BioAssay data set” (2004).
Activity calls are given as the source filed them.

How the values were obtained:
[1] = IGROV1 cell killing – plate reader, dry powder samples, PAX8 inhibitor project, dose response (AID 743043); format: functional, cell-based; settings: IGROV-1
[2] = HEK-293T viability loss after treatment – luminescence, T-cell screen hits, cytotoxicity control for TCR NF-kB inhibitor project, dose response (AID 489026); format: functional, cell-based;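 also: cells exposed to compound about 14 hours before the viability readout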
[3] = PAX8-dependent cell viability loss – plate reader, dry powder, dose response (AID 743049); format: functional, cell-based
[4] = A2780 cell killing – plate reader, dry powder samples, cytotoxicity control, dose response (AID 743046); format: functional, cell-based
[5] = toxicity toward immortalized ovarian surface epithelium – cell-based, plate reader, dry powder samples, cytotoxicity control for PAX8 inhibitor project, dose response (AID 743045); format: functional
[6] = DRD fibroblast viability loss – cell-based, non-viral oncogenic, luminescence, dose response (AID 1934); format: functional; settings: Homo sapiens
[7] = PAX5 cellular inhibition readout – cell-based, plate reader, dry powder samples, selectivity assay for PAX8 inhibitor project, dose response (AID 743047); format: functional;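 also: HEK293 cells carrying a Pax5 driven CD19 promoter luciferase reporter; potency of inhibitors that lower reporter luminescence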
[8] = inhibitors acting on PAX2 in cells – cell-based, plate reader, dry powder samples, selectivity assay for PAX8 inhibitor project, dose response (AID 743048); format: functional;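 also: HEK293 cells carrying a WT1 promoter luciferase reporter driven by expressed Pax2; potency is for inhibition of Pax2 driven reporter signal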
[9] = OVCAR4 cell viability loss – plate reader, dry powder, SA11, cytotoxicity control for PAX8 inhibitor project, dose response (AID 743150); format: functional, cell-based; settings: OVCAR-4
BJ [10] = experiment: BJ-TERT fibroblast viability loss – cell-based, RAS-independent, luminescence, dose response (AID 1933); format: functional; settings: Homo sapiens
[11] = COV434 cell viability loss – plate reader, dry powder, SA7, cytotoxicity control for PAX8 inhibitor project, dose response (AID 743145); format: functional, cell-based
BJ [12] = experiment: cells; format: functional, cell-based; settings: Homo sapiens
Paired box protein Pax-8 = Paired box protein Pax-8 (Homo sapiens, UniProt Q06710); experiment: PAX8 transcriptional activity inhibition in RMG-I – RMG-I cells, luciferase, cherry-pick, dose response (AID 687027); format: functional, cell-based;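 also: luciferase reporter driven by Pax8 target thyroperoxidase promoter measured by SteadyGlo luminescence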
[13] = OV-90 cell viability loss – plate reader, dry powder, SA8, PAX8 inhibitor project, dose response (AID 743149); format: functional, cell-based
[14] = OVCAR-3 cell viability loss – plate reader, dry powder samples, PAX8 inhibitor project, dose response (AID 743044); format: functional, cell-based
BJ [15] = experiment: BJ-TERT-LT-ST fibroblast viability loss – cell-based, RAS-independent, luminescence, dose response (AID 1935); format: functional; settings: Homo sapiens;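 also: BJ fibroblasts immortalized with TERT plus LT and ST oncogenes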
[16] = target: T1, Long-chain-fatty-acid--AMP ligase FadD28 (Mycobacterium tuberculosis, UniProt P9WQ59); experiment: Fluorescence polarization aasay to screen for inhibitors that compete for the binding of FadD28 to a bisubstrate Measured in Biochemical System Using Plate Reader - 2147-01_Inhibitor_Dose_CherryPick_Activity.; format: functional, Mycobacterium tuberculosis H37Rv
T1 sequence (P9WQ59 whole entry): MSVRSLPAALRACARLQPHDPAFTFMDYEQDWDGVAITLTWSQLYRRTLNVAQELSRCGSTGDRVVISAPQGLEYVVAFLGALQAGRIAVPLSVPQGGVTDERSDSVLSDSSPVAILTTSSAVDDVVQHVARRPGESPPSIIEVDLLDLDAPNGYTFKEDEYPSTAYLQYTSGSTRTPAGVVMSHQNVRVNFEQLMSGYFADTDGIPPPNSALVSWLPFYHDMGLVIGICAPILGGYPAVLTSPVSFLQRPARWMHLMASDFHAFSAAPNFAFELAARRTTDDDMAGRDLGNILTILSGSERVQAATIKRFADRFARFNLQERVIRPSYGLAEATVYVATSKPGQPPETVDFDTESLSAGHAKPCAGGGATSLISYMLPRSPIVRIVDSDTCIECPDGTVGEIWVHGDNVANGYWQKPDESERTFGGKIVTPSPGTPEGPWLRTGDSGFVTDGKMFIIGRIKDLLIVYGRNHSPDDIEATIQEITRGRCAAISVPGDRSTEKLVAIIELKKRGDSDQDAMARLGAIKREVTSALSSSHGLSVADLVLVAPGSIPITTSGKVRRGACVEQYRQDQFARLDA

[17] = target: Ubiquitin carboxyl-terminal hydrolase BAP1 (Homo sapiens, UniProt Q92560); experiment: inhibition of BAP1 ubiquitin hydrolase activity – biochemical, dose response (AID 714); format: functional
Fibrinogen beta chain [18] = target: T2, Fibrinogen beta chain (Homo sapiens, UniProt P02675); experiment: Fluorescence polarization-based biochemical high throughput dose response assay to identify inhibitors that disrupt the binding of a cyclic peptide (Tn6) to the fibrin proteolytic product D-Dimer and fragment E complex [DD(E )].
Fibrinogen beta chain [19] = target: T2, Fibrinogen beta chain; experiment: Fluorescence polarization-based biochemical high throughput dose response assay to identify inhibitors that disrupt the binding of a cyclic peptide (Tn7) to the fibrin proteolytic product D-Dimer and fragment E complex [DD(E )].
[20] = target: Induced myeloid leukemia cell differentiation protein Mcl-1 (Homo sapiens, UniProt Q07820); format: functional
[21] = target: Glutathione-S-transferase (Schistosoma japonicum, UniProt Q26513); experiment: GST-antibody interaction or FRET quenching – biochemical, TR-FRET, artefact control for Vif-APOBEC3G degradation inhibitor project, dose response (AID 1117362); format: functional
[22] = IC50 of Artemis nuclease activity blockers – biochemical, fluorescence intensity, dose response (AID 720701); format: functional;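 also: Artemis endonuclease enzyme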
[23] = target: Mitogen-activated protein kinase 10 (Homo sapiens, UniProt P53779); experiment: Dose response biochemical screening assay for inhibitors of c-Jun N-Terminal Kinase 3 (JNK3). [Related pubchem assays: 746 ]
Protein Tat = Protein Tat (Human immunodeficiency virus type 1 group M subtype B (isolate HXB2)(HIV-1), UniProt P04608); format: functional;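 also: tat binding to TAR RNA read out by fluorescence polarization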
Protein RecA = target: T3, Protein RecA (Mycobacterium tuberculosis, UniProt P9WHJ3); experiment: Fluorescence Cell-Free Homogeneous Dose Retest to Identify Inhibitors of RecA-Intein Splicing Activity. [Related pubchem assays (depositor defined):AID2097, AID2223, AID489010, AID492950]; format: functional
T3 sequence (P9WHJ3 whole entry): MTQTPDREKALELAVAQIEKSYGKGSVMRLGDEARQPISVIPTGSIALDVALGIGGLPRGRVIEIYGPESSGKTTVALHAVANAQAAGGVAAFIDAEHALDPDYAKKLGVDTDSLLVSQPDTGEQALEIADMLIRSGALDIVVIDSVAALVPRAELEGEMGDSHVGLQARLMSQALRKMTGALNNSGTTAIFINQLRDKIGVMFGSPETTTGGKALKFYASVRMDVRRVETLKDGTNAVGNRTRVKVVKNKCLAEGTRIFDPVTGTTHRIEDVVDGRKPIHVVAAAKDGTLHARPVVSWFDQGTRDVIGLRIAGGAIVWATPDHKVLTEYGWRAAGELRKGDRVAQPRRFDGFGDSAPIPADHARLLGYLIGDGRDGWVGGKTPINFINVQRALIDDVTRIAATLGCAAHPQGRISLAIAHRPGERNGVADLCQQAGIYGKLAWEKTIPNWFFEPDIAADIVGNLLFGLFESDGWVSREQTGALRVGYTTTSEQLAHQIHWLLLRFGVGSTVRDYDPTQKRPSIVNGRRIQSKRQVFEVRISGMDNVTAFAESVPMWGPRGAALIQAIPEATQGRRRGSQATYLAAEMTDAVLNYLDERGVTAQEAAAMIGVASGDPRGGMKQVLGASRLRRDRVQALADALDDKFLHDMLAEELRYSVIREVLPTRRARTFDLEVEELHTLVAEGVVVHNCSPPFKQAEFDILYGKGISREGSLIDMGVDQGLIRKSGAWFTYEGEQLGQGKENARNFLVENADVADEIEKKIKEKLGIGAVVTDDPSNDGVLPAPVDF

[24] = viability loss in THP-1 monocytes – THP-1 cells, cytotoxicity control for Vif-APOBEC3G degradation inhibitor project, dose response (AID 1117359); format: functional; settings: THP-1
[25] = target: T4, Replicative DNA helicase DnaB (Mycobacterium tuberculosis, UniProt P9WMR3); experiment: DnaB intein splicing inhibitors, dose response, biochemical, cell-free fluorescence (AID 449749); format: functional
T4 sequence (P9WMR3 whole entry): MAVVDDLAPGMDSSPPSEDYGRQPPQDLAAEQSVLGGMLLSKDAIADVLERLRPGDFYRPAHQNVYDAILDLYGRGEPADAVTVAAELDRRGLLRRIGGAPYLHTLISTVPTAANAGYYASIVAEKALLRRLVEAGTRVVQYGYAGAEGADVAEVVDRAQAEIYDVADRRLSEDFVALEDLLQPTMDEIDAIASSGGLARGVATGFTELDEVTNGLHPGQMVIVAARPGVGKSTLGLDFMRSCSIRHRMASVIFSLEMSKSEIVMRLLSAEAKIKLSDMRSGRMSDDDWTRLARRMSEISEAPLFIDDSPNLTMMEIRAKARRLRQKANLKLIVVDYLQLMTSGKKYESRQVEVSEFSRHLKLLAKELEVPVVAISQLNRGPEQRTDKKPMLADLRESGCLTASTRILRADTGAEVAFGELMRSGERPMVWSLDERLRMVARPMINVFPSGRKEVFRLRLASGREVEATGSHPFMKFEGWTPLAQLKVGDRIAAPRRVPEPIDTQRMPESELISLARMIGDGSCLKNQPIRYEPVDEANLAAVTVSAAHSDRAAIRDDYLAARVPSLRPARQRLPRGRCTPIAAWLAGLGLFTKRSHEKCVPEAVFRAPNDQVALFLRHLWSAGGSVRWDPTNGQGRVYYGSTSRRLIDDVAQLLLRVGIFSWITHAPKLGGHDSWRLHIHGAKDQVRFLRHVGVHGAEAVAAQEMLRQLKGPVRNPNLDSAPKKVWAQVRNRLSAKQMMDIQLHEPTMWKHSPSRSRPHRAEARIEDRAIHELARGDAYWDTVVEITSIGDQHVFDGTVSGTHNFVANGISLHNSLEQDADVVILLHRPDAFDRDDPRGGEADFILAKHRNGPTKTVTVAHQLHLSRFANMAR

T2 sequence (P02675 whole entry, the tested form may be a part): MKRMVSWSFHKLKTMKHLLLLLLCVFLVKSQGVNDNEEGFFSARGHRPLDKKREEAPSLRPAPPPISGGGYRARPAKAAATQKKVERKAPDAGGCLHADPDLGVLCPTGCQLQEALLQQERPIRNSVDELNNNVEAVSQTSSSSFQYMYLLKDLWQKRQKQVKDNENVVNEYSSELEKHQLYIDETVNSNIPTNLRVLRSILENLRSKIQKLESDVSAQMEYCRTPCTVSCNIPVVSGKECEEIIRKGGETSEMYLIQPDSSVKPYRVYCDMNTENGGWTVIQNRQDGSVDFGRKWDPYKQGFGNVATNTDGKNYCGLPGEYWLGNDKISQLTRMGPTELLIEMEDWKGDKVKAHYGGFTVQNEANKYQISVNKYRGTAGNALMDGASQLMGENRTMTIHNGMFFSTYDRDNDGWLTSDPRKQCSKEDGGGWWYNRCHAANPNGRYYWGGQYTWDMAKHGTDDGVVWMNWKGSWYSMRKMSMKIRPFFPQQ
Sequence of Protein Tat (P04608 whole entry): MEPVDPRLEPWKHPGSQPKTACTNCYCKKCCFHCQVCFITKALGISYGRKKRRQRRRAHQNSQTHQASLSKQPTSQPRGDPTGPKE
Sequence of Ubiquitin carboxyl-terminal hydrolase BAP1 (Q92560 whole entry, the tested form may be a part): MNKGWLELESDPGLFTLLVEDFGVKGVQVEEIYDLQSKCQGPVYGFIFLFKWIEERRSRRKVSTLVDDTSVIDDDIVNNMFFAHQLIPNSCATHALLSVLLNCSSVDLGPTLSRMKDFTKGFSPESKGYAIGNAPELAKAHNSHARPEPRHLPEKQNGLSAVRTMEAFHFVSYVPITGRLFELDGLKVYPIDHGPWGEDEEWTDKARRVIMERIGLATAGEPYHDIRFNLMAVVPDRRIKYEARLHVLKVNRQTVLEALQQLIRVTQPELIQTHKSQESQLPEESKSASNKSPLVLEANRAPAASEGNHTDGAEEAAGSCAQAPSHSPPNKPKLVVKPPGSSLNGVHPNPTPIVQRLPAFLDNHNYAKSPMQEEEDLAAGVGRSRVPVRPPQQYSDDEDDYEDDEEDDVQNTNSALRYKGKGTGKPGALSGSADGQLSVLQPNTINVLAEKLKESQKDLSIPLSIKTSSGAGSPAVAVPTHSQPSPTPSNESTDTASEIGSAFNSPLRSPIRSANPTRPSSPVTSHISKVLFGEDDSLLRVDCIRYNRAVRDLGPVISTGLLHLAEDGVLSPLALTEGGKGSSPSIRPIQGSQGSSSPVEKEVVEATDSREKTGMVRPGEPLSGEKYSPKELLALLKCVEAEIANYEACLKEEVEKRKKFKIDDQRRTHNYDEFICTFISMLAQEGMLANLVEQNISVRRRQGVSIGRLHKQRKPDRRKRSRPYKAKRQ
Sequence of Paired box protein Pax-8 (Q06710 whole entry): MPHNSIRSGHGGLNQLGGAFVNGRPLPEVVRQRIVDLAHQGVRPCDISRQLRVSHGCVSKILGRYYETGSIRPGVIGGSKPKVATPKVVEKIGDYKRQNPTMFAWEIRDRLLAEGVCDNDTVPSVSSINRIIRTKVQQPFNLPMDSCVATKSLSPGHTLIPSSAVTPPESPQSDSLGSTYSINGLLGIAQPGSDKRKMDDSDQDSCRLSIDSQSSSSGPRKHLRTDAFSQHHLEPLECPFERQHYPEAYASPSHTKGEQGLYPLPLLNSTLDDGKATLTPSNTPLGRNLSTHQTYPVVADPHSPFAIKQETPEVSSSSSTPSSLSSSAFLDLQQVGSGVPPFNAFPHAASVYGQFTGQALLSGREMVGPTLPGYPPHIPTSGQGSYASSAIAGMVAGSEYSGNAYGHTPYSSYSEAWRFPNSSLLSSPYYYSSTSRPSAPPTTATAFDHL
Sequence of Glutathione-S-transferase (Q26513 whole entry): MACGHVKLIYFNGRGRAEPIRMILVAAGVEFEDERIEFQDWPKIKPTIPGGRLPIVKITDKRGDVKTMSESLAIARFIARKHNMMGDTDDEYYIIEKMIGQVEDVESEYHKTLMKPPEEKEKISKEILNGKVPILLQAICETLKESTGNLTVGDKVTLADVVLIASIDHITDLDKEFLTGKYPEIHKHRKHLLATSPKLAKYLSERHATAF
Sequence of Induced myeloid leukemia cell differentiation protein Mcl-1 (Q07820 whole entry): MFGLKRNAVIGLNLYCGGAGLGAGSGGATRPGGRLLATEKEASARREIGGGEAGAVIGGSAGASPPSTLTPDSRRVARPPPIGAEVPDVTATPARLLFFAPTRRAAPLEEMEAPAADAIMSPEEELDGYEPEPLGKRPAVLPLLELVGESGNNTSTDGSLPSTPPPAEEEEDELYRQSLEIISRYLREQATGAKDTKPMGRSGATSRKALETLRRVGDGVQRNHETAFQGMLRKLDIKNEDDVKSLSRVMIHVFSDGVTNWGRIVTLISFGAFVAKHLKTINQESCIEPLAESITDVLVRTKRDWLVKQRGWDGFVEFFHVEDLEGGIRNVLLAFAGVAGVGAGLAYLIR
Sequence of Mitogen-activated protein kinase 10 (P53779 whole entry): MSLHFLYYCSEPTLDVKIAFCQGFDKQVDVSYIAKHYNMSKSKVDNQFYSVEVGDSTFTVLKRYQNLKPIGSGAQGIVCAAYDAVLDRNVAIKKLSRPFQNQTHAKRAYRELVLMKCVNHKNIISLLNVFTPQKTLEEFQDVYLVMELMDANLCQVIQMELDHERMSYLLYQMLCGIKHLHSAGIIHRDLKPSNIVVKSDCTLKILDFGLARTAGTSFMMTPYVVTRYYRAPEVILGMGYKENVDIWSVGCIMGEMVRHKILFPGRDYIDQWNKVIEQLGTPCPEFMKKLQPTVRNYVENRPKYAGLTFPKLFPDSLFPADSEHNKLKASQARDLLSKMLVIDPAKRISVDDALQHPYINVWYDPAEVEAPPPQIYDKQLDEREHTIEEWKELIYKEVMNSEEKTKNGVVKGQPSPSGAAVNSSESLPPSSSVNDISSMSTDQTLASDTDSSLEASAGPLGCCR

With CCOCCCNC(=O)c1ccc2c(c1)N=C(CC)c1cc(Br)ccc1S2 the AC50 [1] was 4.78 µM (active), the IC50 [2] was > 80 µM (inactive) and the AC50 [3] was 0.386 µM (active). The AC50 [4] was 1.35 µM (active), the AC50 [5] was 0.403 µM (active) and the EC50 [6] was 0.358 µM (active). The AC50 [7] was 41.8 µM (active), the AC50 [8] was 15.3 µM (active) and the AC50 [9] was 1.16 µM (active). The EC50 (BJ [10]) was 0.342 µM (active), the AC50 [11] was 1.07 µM (active) and the EC50 (BJ [12]) was 0.828 µM (inconclusive). For the same molecule, the AC50 (Paired box protein Pax-8) was 1.22 µM (active), the AC50 [13] was 0.497 µM (active) and the AC50 [14] was 0.3 µM (active). For the same molecule, the EC50 (BJ [15]) was 0.455 µM (active).
For CC1CCCN(S(=O)(=O)c2ccc(NC(=O)Cn3nnc(-c4ccccc4F)n3)cc2)C1 (stereo not drawn), the AC50 [16] was > 100 µM (inactive) and the IC50 [17] was 41.6 µM (not active).
With Nc1c(SCCC(=O)O)ccc2c1C(=O)c1ccccc1C2=O the IC50 (Fibrinogen beta chain [18]) was 11.7 µM (inactive) and the IC50 (Fibrinogen beta chain [19]) was > 83.3 µM (inactive).
For COc1ccc(O)c(N)c1, the IC50 [20] was 1.53 µM (active) and the IC50 [21] was > 100 µM (active).
For Cc1ccc(CNC(=O)c2cc3c(=O)n4ccccc4nc3n(Cc3ccco3)c2=N)cc1, the IC50 [22] was 17.3 µM (active).
With Cc1ccccc1-n1nc(C)c2cc(C(=O)N3CCOCC3)sc21 the IC50 [23] was > 93.1 µM (not active).
For CC1=CC(C)(C)N2C(=O)/C(=N/c3ccc(O)cc3)c3cccc1c32, the IC50 (Protein Tat) was > 100 µM (active), the EC50 (Protein RecA) was > 380 µM (inactive) and the CC50 [24] was 9.38 µM (active). For the same molecule, the AC50 [25] was > 380 µM (inactive).
